ChEMBL document CHEMBL3817808, “Enlarging the chemical space of anti-leishmanials: a structureactivity relationship study of peptoids against Leishmania mexicana, a causative agent of cutaneous leishmaniasis” (Medchemcomm, 2016)
Non-standard residues stand in square brackets, D forms with d. Residues, ends and D or L forms follow the SMILES beside them. Gly(N-2-aminoethyl) = NCCNCC(=O)O; Nphe = O=C(O)CNCc1ccccc1

Experiments:
Leishmania mexicana [1] = experiment: Antileishmanial activity against Leishmania mexicana MNYC/BZ/62/M379 promastigotes assessed as parasite viability measured after 1 hr by alamarBlue staining based fluorescence analysis; type: functional; details: MNYC/BZ/62/M379, 1 h, read-out: ED50 (the source's name)
Leishmania mexicana [2] = experiment: Antileishmanial activity against axenic amastigote form of Leishmania mexicana MNYC/BZ/62/M379 assessed as parasite viability measured after 1 hr by alamarBlue staining based fluorescence analysis; type: functional; details: MNYC/BZ/62/M379, 1 h, read-out: ED50 (the source's name)
Leishmania mexicana [3] = experiment: Antileishmanial activity against Leishmania mexicana MNYC/BZ/62/M379 amastigotes infected in mouse RAW264.7 cells assessed as parasite viability measured after 24 hrs by alamarBlue staining based fluorescence analysis; type: functional
[4] = Cytotoxicity against mouse RAW264.7 cells measured after 24 hrs by alamarBlue staining based fluorescence analysis; type: cell-based; details: read-out: ED50

NCCNCC(=O)N(CC(=O)N(CC(=O)N(CCN)CC(=O)N(CC(=O)N(CC(=O)N(CCN)CC(=O)N(CC(=O)N(CC(=O)N(CCN)CC(=O)N(CC(=O)N(CC(N)=O)Cc1ccccc1)Cc1ccccc1)Cc1ccccc1)Cc1ccccc1)Cc1ccccc1)Cc1ccccc1)Cc1ccccc1)Cc1ccccc1 (H-[Gly(N-2-aminoethyl)][Nphe][Nphe][Gly(N-2-aminoethyl)][Nphe][Nphe][Gly(N-2-aminoethyl)][Nphe][Nphe][Gly(N-2-aminoethyl)][Nphe][Nphe]-NH2)
EC50 (Leishmania mexicana [1]): 21 µM
EC50 (Leishmania mexicana [2]): > 100 µM
ED50 (Leishmania mexicana [3]): >5 µM
CC50 at 24 h [4]: > 5 µM

CC(c1ccccc1)N(CC(=O)N(CCCCN)CC(=O)N(CC(=O)N(CC(=O)N(CCCCN)CC(=O)N(CC(=O)N(CC(N)=O)[C@@H](C)c1ccccc1)[C@@H](C)c1ccccc1)Cc1ccc(F)cc1)Cc1ccc(F)cc1)C(=O)CN(C(=O)CN(CCCCN)C(=O)CN(Cc1ccc(F)cc1)C(=O)CN(Cc1ccc(F)cc1)C(=O)CNCCCCN)[C@@H](C)c1ccccc1 (single isomer, unassigned)
EC50 (Leishmania mexicana [1]): 6 µM
EC50 (Leishmania mexicana [2]): 21 µM
ED50 (Leishmania mexicana [3]): >5 µM
CC50 at 24 h [4]: 5 µM

CCCCCNCC(=O)N(CC(=O)N(CC(=O)N(CCCCC)CC(=O)N(CC(=O)N(CC(=O)N(CCCCN)CC(=O)N(CC(=O)N(CC(=O)N(CCCCN)CC(=O)N(CC(=O)N(CC(N)=O)[C@@H](C)c1ccccc1)[C@@H](C)c1ccccc1)C(C)c1ccccc1)[C@@H](C)c1ccccc1)C(C)c1ccccc1)[C@@H](C)c1ccccc1)C(C)c1ccccc1)[C@@H](C)c1ccccc1 (single isomer, unassigned)
EC50 (Leishmania mexicana [1]): 11 µM
EC50 (Leishmania mexicana [2]): 16 µM
ED50 (Leishmania mexicana [3]): 1.6 µM
CC50 at 24 h [4]: 1.7 µM

C[C@H](c1ccccc1)N(CC(N)=O)C(=O)CN(C(=O)CN(CCCCN)C(=O)CN(C(=O)CN(C(=O)CN(CCCCN)C(=O)CN(C(=O)CN(C(=O)CNCCCCN)[C@H](C)c1ccccc1)[C@@H](C)c1ccccc1)[C@H](C)c1ccccc1)[C@@H](C)c1ccccc1)[C@H](C)c1ccccc1 (stereo in doubt)
EC50 (Leishmania mexicana [1]): 15 µM
EC50 (Leishmania mexicana [2]): > 100 µM

C[C@H](c1ccccc1)N(CC(=O)N(CCN)CC(=O)N(CC(=O)N(CC(=O)N(CCN)CC(=O)N(CC(=O)N(CC(=O)N(CCN)CC(=O)N(CC(=O)N(CC(N)=O)[C@@H](C)c1ccccc1)[C@@H](C)c1ccccc1)[C@H](C)c1ccccc1)[C@@H](C)c1ccccc1)[C@H](C)c1ccccc1)[C@@H](C)c1ccccc1)C(=O)CN(C(=O)CNCCN)[C@H](C)c1ccccc1 (stereo in doubt)
EC50 (Leishmania mexicana [1]): 7 µM
EC50 (Leishmania mexicana [2]): 17 µM
ED50 (Leishmania mexicana [3]): >5 µM
CC50 at 24 h [4]: 3 µM

C[C@@H]1[C@H](O)[C@@H](C)/C=C/C=C/C=C/C=C/C=C/C=C/C=C/[C@H](O[C@@H]2O[C@H](C)[C@@H](O)[C@H](N)[C@@H]2O)C[C@@H]2O[C@](O)(C[C@@H](O)C[C@@H](O)[C@H](O)CC[C@@H](O)C[C@@H](O)CC(=O)O[C@H]1C)C[C@H](O)[C@H]2C(=O)O [AMPHOTERICIN B]
EC50 (Leishmania mexicana [1]): < 2 µM
EC50 (Leishmania mexicana [2]): < 2 µM
ED50 (Leishmania mexicana [3]): 0.195 µM
CC50 at 24 h [4]: > 5 µM
